The source of these data is PubChem BioAssay (NCI).

Common to all, as to test: inhibition of tumour cell growth, NCI panel, 48 h
The test system of assay [1] is PC-3 prostate.
Assay [2] deals with ACHN renal.
Assay [3] has as its system SR leukemia.
Assay [4] relates to LOX IMVI melanoma.
The subject of assay [5] is UACC-62 melanoma.
Assay [6] concerns SNB-75 CNS.
The subject of assay [7] is 786-0 renal.
Assay [8] deals with EKVX NSCLC.
Assay [9] has as its system NCI-H460 lung.
The test system of assay [10] is HCT-15 colon.
Assay [11] deals with MDA-MB-231 breast.
The test system of assay [12] is HCC-2998 colon.
Assay [13] deals with MDA-MB-435.
In assay [14] the test system is HOP-62 NSCLC.
Assay [15] has as its system HOP-92 NSCLC.
For assay [16], the system named is U251 CNS.
The test system of assay [17] is SN12C renal.
In assay [18] the test system is SW-620 colon.
The test system of assay [19] is MOLT-4 leukemia.
Assay [20] relates to RPMI-8226 leukemia.

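Where inhibition never reached the appropriate level, the endpoint shown equals the highest concentration tested. Otherwise, values were interpolated linearly from a five-concentration, 48-hour dose response in 96-well plates. TGI: total growth inhibition.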 *1 amine or outer side, *2 acyl side, *3 side chain or, on linkers, in order; H or OH if unused. Where a SMILES comes first, the peptide text is derived from it. [ ]: non-standard residue; d: D form. X33 = C=CCC(O[*:1])C(=O)[*:2]; NMeV = CN[CH](C(=O)O)C(C)C; NMeA = CN[CH](C)C(=O)O; βAla = NCCC(=O)O

As for `C=CCC1OC(=O)CCNC(=O)C(C)N(C)C(=O)C(C(C)C)N(C)C(=O)C(C(C)CC)NC(=O)C2CCCN2C1=O` (centres undefined) (cyclo([X33]PI[NMeV][NMeA][βAla]); configuration not given here), the TGI in [1] was greater than 100 µM; in assay [2], greater than 100 µM; in assay [3], greater than 100 µM; in [4] it was 5.17 µM; in [5], 7.43 µM; in [6], greater than 100 µM. The TGI in [7] is greater than 100 µM; in assay [8], greater than 100 µM; in assay [9], greater than 100 µM; in [10], greater than 100 µM; in assay [11], 62.9 µM; in assay [12], greater than 100 µM. Further, the TGI in [13], in [14], in assay [15], in [16], in [17] and in assay [18] was greater than 100 µM in each case. The results for the TGI in assay [19] and in [20] were greater than 100 µM and 7.84 µM, respectively.

On to `COc1ccc(-c2c3c(nc4nc(SC)nc(SC)c24)CCCC3)cc1OC`, for which the TGI in assay [1] is greater than 100 µM; in assay [2], greater than 100 µM; in [3], 46.4 µM; in [4], greater than 100 µM; in [5] it was greater than 100 µM; in assay [6], greater than 100 µM. The TGI in assay [8], in [9], in assay [10], in assay [11], in assay [12] and in assay [13] was greater than 100 µM in each case. Moreover, the TGI in assay [14], in assay [15], in [16], in [17], in assay [18] and in assay [19] was greater than 100 µM throughout. In assay [20], this molecule showed a TGI greater than 100 µM.

Take `CC(CCC(=O)O)C1CCC2C3C(O)CC4CC(O)CCC4(C)C3CC(O)C12C` (centres undefined): the TGI in assay [1], in [2], in assay [3], in assay [4], in assay [5] and in [6] was greater than 100 µM in each case. Moreover, the TGI in assay [7], in assay [8], in assay [9], in assay [10], in assay [11] and in assay [12] was greater than 100 µM throughout. In addition, the TGI in [13], in [14], in [15], in assay [16], in assay [17] and in assay [18] was greater than 100 µM each time. Besides, the TGI in assay [19] and in assay [20] was greater than 100 µM in each case.

`COC1=CC(=O)c2c(O)c3c(c(O)c2C1=O)C=C(C)OC3O` (centres undefined): the TGI in [1] stood at 16.3 µM; in assay [2], 6.89 µM; in assay [3], 5.46 µM; in [4], 1.9 µM; in [5], 1.85 µM; in [6], 3.97 µM. Also, the TGI in assay [7] was found to be 10.9 µM; in [8], 20.2 µM; in assay [9], 3.18 µM; in [10], 2.07 µM; in assay [11], 5.09 µM; in [12], 3.74 µM. Besides, the TGI turned out to be 2.5 µM in assay [13]; 7.04 µM in assay [14]; 20.9 µM in assay [15]; 7.72 µM in assay [16]; 2.08 µM in assay [17]; 2.84 µM in [18]. Further, the TGI in assay [19] amounted to 5.04 µM; in assay [20] it was 5.83 µM.

On to `O=C(O)CC1(CC(=O)O)Nc2ccccc2SC1=O`, for which the TGI in assay [1], in assay [2], in [3], in [4], in [5] and in assay [6] was greater than 100 µM throughout. The TGI in assay [7], in assay [8], in assay [9], in [10], in [11] and in assay [12] was greater than 100 µM each time. Further, the TGI in assay [13], in [14], in assay [15], in [16], in assay [17] and in assay [18] was greater than 100 µM in each case. The TGI in [19] and in [20] was greater than 100 µM throughout.
